Data published in PubChem BioAssay (NCI).
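All cell lines were grown in 96-well plates and treated with compound for 48 hours. At the TGI there is no net growth.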

Legend:
Assay in all cases: NCI tumour cell line growth inhibition, 48 h
UACC-62 melanoma = tested on: UACC-62 melanoma
SN12C renal = tested on: SN12C renal
UACC-257 melanoma = tested on: UACC-257 melanoma
RXF-631 renal = tested on: RXF-631 renal
HOP-18 NSCLC = tested on: HOP-18 NSCLC
SK-MEL-28 melanoma = tested on: SK-MEL-28 melanoma
SW-620 colon = tested on: SW-620 colon
MOLT-4 leukemia = tested on: MOLT-4 leukemia
K-562 leukemia = tested on: K-562 leukemia
COLO 205 colon = tested on: COLO 205 colon
A549 NSCLC = tested on: A549 NSCLC
IGROV1 ovarian = tested on: IGROV1 ovarian
UO-31 renal = tested on: UO-31 renal
SNB-75 CNS = tested on: SNB-75 CNS
HOP-92 NSCLC = tested on: HOP-92 NSCLC
DLD-1 colon = tested on: DLD-1 colon
SF-539 CNS = tested on: SF-539 CNS
SK-OV-3 ovarian = tested on: SK-OV-3 ovarian
NCI-H460 lung = tested on: NCI-H460 lung
DMS 114 small cell lung = tested on: DMS 114 small cell lung
XF 498 CNS = tested on: XF 498 CNS
SF-295 CNS = tested on: SF-295 CNS
SNB-19 CNS = tested on: SNB-19 CNS
DMS 273 small cell lung = tested on: DMS 273 small cell lung
SK-MEL-5 melanoma = tested on: SK-MEL-5 melanoma
TK-10 renal = tested on: TK-10 renal
786-0 renal = tested on: 786-0 renal
ACHN renal = tested on: ACHN renal
CAKI-1 renal = tested on: CAKI-1 renal
SR leukemia = tested on: SR leukemia
OVCAR-5 ovarian = tested on: OVCAR-5 ovarian
LXFL 529 NSCLC = tested on: LXFL 529 NSCLC
HCT-116 colon = tested on: HCT-116 colon
M14 melanoma = tested on: M14 melanoma
HCC-2998 colon = tested on: HCC-2998 colon
OVCAR-8 ovarian = tested on: OVCAR-8 ovarian
LOX IMVI melanoma = tested on: LOX IMVI melanoma
HOP-62 NSCLC = tested on: HOP-62 NSCLC
NCI-H23 lung = tested on: NCI-H23 lung
NCI-H226 lung = tested on: NCI-H226 lung
CCRF-CEM leukemia = tested on: CCRF-CEM leukemia
EKVX NSCLC = tested on: EKVX NSCLC
HCT-15 colon = tested on: HCT-15 colon
KM20L2 colon = tested on: KM20L2 colon
KM12 colon = tested on: KM12 colon
RXF 393 renal = tested on: RXF 393 renal
A498 renal = tested on: A498 renal
U251 CNS = tested on: U251 CNS
SNB-78 CNS = tested on: SNB-78 CNS
SF-268 CNS = tested on: SF-268 CNS
MALME-3M melanoma = tested on: MALME-3M melanoma
OVCAR-4 ovarian = tested on: OVCAR-4 ovarian
OVCAR-3 ovarian = tested on: OVCAR-3 ovarian
HL-60(TB) leukemia = tested on: HL-60(TB) leukemia
SK-MEL-2 melanoma = tested on: SK-MEL-2 melanoma
HT29 colon = tested on: HT29 colon
RPMI-8226 leukemia = tested on: RPMI-8226 leukemia
NCI-H522 lung = tested on: NCI-H522 lung
M19-MEL melanoma = tested on: M19-MEL melanoma
NCI/ADR-RES ovarian = tested on: NCI/ADR-RES ovarian
P388 leukemia = tested on: P388 leukemia
P388/ADR leukemia = tested on: P388/ADR leukemia
SN12K1 renal = tested on: SN12K1 renal
MCF7 breast = tested on: MCF7 breast

Measured: TGI

COc1ccc(CC(C)N)cc1 (configuration not stated)
> 100 µM: UACC-62 melanoma | SN12C renal | UACC-257 melanoma | RXF-631 renal | HOP-18 NSCLC | SK-MEL-28 melanoma | SW-620 colon | MOLT-4 leukemia | K-562 leukemia | COLO 205 colon | A549 NSCLC | IGROV1 ovarian | UO-31 renal | SNB-75 CNS | HOP-92 NSCLC | DLD-1 colon | SF-539 CNS | SK-OV-3 ovarian | NCI-H460 lung | DMS 114 small cell lung | XF 498 CNS | SF-295 CNS | SNB-19 CNS | DMS 273 small cell lung | SK-MEL-5 melanoma | TK-10 renal | 786-0 renal | ACHN renal | CAKI-1 renal | SR leukemia | OVCAR-5 ovarian | LXFL 529 NSCLC | HCT-116 colon | M14 melanoma | HCC-2998 colon | OVCAR-8 ovarian | LOX IMVI melanoma | HOP-62 NSCLC | NCI-H23 lung | NCI-H226 lung | CCRF-CEM leukemia | EKVX NSCLC | HCT-15 colon | KM20L2 colon | KM12 colon | RXF 393 renal | A498 renal | U251 CNS | SNB-78 CNS | SF-268 CNS | MALME-3M melanoma | OVCAR-4 ovarian | OVCAR-3 ovarian | HL-60(TB) leukemia | SK-MEL-2 melanoma | HT29 colon | RPMI-8226 leukemia | NCI-H522 lung

COc1ccc2oc3cccc(NCCN(C)C)c3c(=O)c2c1
21.2 µM: NCI-H460 lung
23.3 µM: SN12C renal
26.7 µM: KM12 colon
25.3 µM: K-562 leukemia | DMS 273 small cell lung | U251 CNS
27.1 µM: SR leukemia | HCT-15 colon
26.6 µM: UACC-62 melanoma
27.9 µM: HOP-92 NSCLC
23.2 µM: ACHN renal
28 µM: XF 498 CNS
32.1 µM: CCRF-CEM leukemia
21.9 µM: HCC-2998 colon
29.2 µM: HOP-62 NSCLC | EKVX NSCLC | MALME-3M melanoma
29.9 µM: SF-295 CNS | M19-MEL melanoma
22.7 µM: LOX IMVI melanoma
30.8 µM: UACC-257 melanoma
31.2 µM: IGROV1 ovarian
19.8 µM: HCT-116 colon
32.9 µM: SK-MEL-28 melanoma
28.7 µM: SK-OV-3 ovarian
22 µM: KM20L2 colon
33 µM: RPMI-8226 leukemia
32.4 µM: RXF-631 renal
27.7 µM: OVCAR-4 ovarian
23.7 µM: OVCAR-8 ovarian
18.2 µM: CAKI-1 renal
27.5 µM: DLD-1 colon
26.4 µM: RXF 393 renal
12.7 µM: MOLT-4 leukemia
19.1 µM: COLO 205 colon
36 µM: SNB-78 CNS
23.5 µM: 786-0 renal
15.6 µM: SW-620 colon
30.9 µM: SK-MEL-5 melanoma
28.1 µM: SF-539 CNS
28.9 µM: SNB-19 CNS
27 µM: DMS 114 small cell lung
33.8 µM: A498 renal
29.4 µM: M14 melanoma
31 µM: SNB-75 CNS
32 µM: NCI-H226 lung
28.2 µM: A549 NSCLC | TK-10 renal
28.3 µM: SF-268 CNS
24 µM: HOP-18 NSCLC
26 µM: LXFL 529 NSCLC
28.5 µM: OVCAR-3 ovarian
32.7 µM: NCI-H23 lung
21.4 µM: UO-31 renal
27.6 µM: HL-60(TB) leukemia
20.3 µM: HT29 colon
30.2 µM: SK-MEL-2 melanoma
24.9 µM: OVCAR-5 ovarian

COc1cc[n+](C)cc1
> 100 µM: UACC-62 melanoma | SN12C renal | UACC-257 melanoma | HOP-18 NSCLC | NCI/ADR-RES ovarian | SK-MEL-28 melanoma | SW-620 colon | MOLT-4 leukemia | K-562 leukemia | COLO 205 colon | A549 NSCLC | IGROV1 ovarian | UO-31 renal | SNB-75 CNS | HOP-92 NSCLC | DLD-1 colon | SF-539 CNS | SK-OV-3 ovarian | NCI-H460 lung | DMS 114 small cell lung | XF 498 CNS | SF-295 CNS | SNB-19 CNS | DMS 273 small cell lung | SK-MEL-5 melanoma | P388 leukemia | P388/ADR leukemia | SN12K1 renal | OVCAR-5 ovarian | HCT-116 colon | HCC-2998 colon | OVCAR-8 ovarian | LOX IMVI melanoma | HOP-62 NSCLC | NCI-H23 lung | NCI-H226 lung | CCRF-CEM leukemia | EKVX NSCLC | HCT-15 colon | KM20L2 colon | KM12 colon | RXF 393 renal | U251 CNS | SNB-78 CNS | SF-268 CNS | MALME-3M melanoma | MCF7 breast | OVCAR-4 ovarian | OVCAR-3 ovarian | HL-60(TB) leukemia | SK-MEL-2 melanoma | HT29 colon | RPMI-8226 leukemia | NCI-H522 lung | M19-MEL melanoma

S=c1[nH]c2ccc(Br)cc2c(=S)n1-c1ccccc1
48.4 µM: U251 CNS
96.8 µM: 786-0 renal
78.3 µM: OVCAR-3 ovarian
98.6 µM: M14 melanoma
47.7 µM: HT29 colon
40.8 µM: HCC-2998 colon
32.3 µM: UACC-62 melanoma
44.4 µM: SF-539 CNS
54.3 µM: DMS 114 small cell lung
78.5 µM: HOP-92 NSCLC
43.7 µM: SK-MEL-2 melanoma
35.5 µM: SK-MEL-5 melanoma
79.1 µM: SNB-75 CNS
85.1 µM: LOX IMVI melanoma
98.7 µM: SN12C renal
45.2 µM: NCI-H460 lung
85.6 µM: SK-OV-3 ovarian
43.9 µM: HCT-116 colon
83.6 µM: NCI-H226 lung
56.7 µM: RPMI-8226 leukemia
65.6 µM: NCI-H23 lung
63.2 µM: HCT-15 colon
47.1 µM: COLO 205 colon
98.4 µM: A498 renal
60.7 µM: DMS 273 small cell lung | M19-MEL melanoma
85.4 µM: HOP-18 NSCLC
79.3 µM: ACHN renal
36.6 µM: XF 498 CNS
59.9 µM: SK-MEL-28 melanoma
> 100 µM: RXF-631 renal | SW-620 colon | K-562 leukemia | A549 NSCLC | DLD-1 colon | SNB-19 CNS | TK-10 renal | CAKI-1 renal | OVCAR-5 ovarian | OVCAR-8 ovarian | CCRF-CEM leukemia | EKVX NSCLC | KM20L2 colon | SNB-78 CNS | SF-268 CNS | OVCAR-4 ovarian
59 µM: UO-31 renal
55.7 µM: SF-295 CNS
36.9 µM: UACC-257 melanoma
32.1 µM: MALME-3M melanoma
72.5 µM: KM12 colon
89.1 µM: IGROV1 ovarian
47 µM: HOP-62 NSCLC

COc1cccc(C(=O)C2C(=O)N(C)CCc3ccccc32)c1OC (configuration not stated)
> 100 µM: UACC-62 melanoma | SN12C renal | UACC-257 melanoma | RXF-631 renal | HOP-18 NSCLC | SK-MEL-28 melanoma | SW-620 colon | MOLT-4 leukemia | K-562 leukemia | COLO 205 colon | A549 NSCLC | IGROV1 ovarian | UO-31 renal | SNB-75 CNS | HOP-92 NSCLC | DLD-1 colon | SK-OV-3 ovarian | NCI-H460 lung | DMS 114 small cell lung | XF 498 CNS | SNB-19 CNS | DMS 273 small cell lung | SK-MEL-5 melanoma | TK-10 renal | 786-0 renal | ACHN renal | CAKI-1 renal | LXFL 529 NSCLC | HCT-116 colon | M14 melanoma | OVCAR-8 ovarian | LOX IMVI melanoma | HOP-62 NSCLC | NCI-H23 lung | NCI-H226 lung | CCRF-CEM leukemia | HCT-15 colon | KM20L2 colon | KM12 colon | RXF 393 renal | A498 renal | U251 CNS | MALME-3M melanoma | OVCAR-4 ovarian | OVCAR-3 ovarian | HL-60(TB) leukemia | SK-MEL-2 melanoma | HT29 colon | RPMI-8226 leukemia | NCI-H522 lung | M19-MEL melanoma

Cc1cc(=O)oc2cc3c(cc12)Oc1ccccc1O3
> 10 µM: K-562 leukemia | XF 498 CNS | HCC-2998 colon | CCRF-CEM leukemia | EKVX NSCLC | HL-60(TB) leukemia
56.7 µM: SF-539 CNS
> 100 µM: UACC-62 melanoma | SN12C renal | UACC-257 melanoma | RXF-631 renal | HOP-18 NSCLC | SK-MEL-28 melanoma | SW-620 colon | MOLT-4 leukemia | COLO 205 colon | A549 NSCLC | IGROV1 ovarian | UO-31 renal | HOP-92 NSCLC | DLD-1 colon | SK-OV-3 ovarian | NCI-H460 lung | DMS 114 small cell lung | SF-295 CNS | SNB-19 CNS | DMS 273 small cell lung | SK-MEL-5 melanoma | TK-10 renal | 786-0 renal | ACHN renal | SR leukemia | OVCAR-5 ovarian | LXFL 529 NSCLC | HCT-116 colon | M14 melanoma | OVCAR-8 ovarian | LOX IMVI melanoma | HOP-62 NSCLC | NCI-H23 lung | NCI-H226 lung | HCT-15 colon | KM20L2 colon | KM12 colon | RXF 393 renal | A498 renal | U251 CNS | SNB-78 CNS | SF-268 CNS | MALME-3M melanoma | OVCAR-4 ovarian | OVCAR-3 ovarian | SK-MEL-2 melanoma | HT29 colon | RPMI-8226 leukemia | M19-MEL melanoma
59.9 µM: SNB-75 CNS
